Data from US10160755B2 (Plexxikon Inc., priority 2015, dated 2018).

What was measured:
[1] = target: c-Kit (Homo sapiens, UniProt P10721); assay: c-Kit biochemical assay (per US 2007/0032519)
Method in brief: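 Biochemical kinase inhibition run per US 2007/0032519; values reported as binned IC50 ranges (0.0001–1 μM, 1–10 μM, 10–200 μM).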

[2] = target: T1, FLT3-ITD (Homo sapiens, UniProt P36888); assay: FLT3-ITD biochemical kinase assay (AlphaScreen)
T1 construct: FLT3-ITD; Invitrogen #PV6190
T1 sequence (P36888 1-993): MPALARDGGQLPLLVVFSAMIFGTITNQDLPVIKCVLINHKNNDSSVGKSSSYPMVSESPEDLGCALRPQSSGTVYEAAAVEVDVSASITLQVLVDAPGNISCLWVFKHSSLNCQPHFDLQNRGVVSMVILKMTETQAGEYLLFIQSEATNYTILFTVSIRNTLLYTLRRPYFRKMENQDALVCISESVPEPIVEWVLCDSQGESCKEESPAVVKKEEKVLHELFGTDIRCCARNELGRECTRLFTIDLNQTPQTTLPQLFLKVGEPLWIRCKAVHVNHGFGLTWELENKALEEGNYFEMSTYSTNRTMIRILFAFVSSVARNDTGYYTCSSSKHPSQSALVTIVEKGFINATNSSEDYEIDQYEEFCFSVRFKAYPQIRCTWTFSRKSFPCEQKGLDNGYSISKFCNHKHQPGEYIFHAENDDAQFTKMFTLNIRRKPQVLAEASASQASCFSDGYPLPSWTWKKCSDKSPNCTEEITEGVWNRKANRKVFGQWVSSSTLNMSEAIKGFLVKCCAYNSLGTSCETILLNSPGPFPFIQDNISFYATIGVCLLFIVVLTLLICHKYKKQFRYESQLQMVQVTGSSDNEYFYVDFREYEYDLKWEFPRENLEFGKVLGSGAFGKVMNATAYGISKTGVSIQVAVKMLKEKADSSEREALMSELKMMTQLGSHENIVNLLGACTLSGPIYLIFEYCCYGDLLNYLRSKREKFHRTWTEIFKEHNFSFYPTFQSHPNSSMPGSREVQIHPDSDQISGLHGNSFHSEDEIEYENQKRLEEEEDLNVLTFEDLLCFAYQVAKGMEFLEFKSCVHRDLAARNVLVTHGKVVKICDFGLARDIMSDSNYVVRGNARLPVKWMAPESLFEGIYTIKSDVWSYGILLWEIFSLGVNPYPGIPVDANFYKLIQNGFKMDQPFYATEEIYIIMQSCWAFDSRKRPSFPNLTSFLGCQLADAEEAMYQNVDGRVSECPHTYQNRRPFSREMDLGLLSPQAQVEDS
Method in brief: (§1)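 AlphaScreen read-out of tyrosine phosphorylation of a 30 nM biotinylated poly(Glu4-Tyr) substrate, captured on streptavidin donor and PY20 acceptor beads at room temperature. ATP for IC50 work was 100 μM with FLT3-ITD and 10 μM with FLT3-D835Y; reduced 580 nm proximity signal reflects kinase inhibition.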

[3] = target: T2, FLT3-D835Y (Homo sapiens, UniProt P36888, D835Y); assay: FLT3-D835Y biochemical kinase assay (AlphaScreen)
T2 construct: purchased Invitrogen PV3967
T2 sequence (P36888 27-993 D835Y): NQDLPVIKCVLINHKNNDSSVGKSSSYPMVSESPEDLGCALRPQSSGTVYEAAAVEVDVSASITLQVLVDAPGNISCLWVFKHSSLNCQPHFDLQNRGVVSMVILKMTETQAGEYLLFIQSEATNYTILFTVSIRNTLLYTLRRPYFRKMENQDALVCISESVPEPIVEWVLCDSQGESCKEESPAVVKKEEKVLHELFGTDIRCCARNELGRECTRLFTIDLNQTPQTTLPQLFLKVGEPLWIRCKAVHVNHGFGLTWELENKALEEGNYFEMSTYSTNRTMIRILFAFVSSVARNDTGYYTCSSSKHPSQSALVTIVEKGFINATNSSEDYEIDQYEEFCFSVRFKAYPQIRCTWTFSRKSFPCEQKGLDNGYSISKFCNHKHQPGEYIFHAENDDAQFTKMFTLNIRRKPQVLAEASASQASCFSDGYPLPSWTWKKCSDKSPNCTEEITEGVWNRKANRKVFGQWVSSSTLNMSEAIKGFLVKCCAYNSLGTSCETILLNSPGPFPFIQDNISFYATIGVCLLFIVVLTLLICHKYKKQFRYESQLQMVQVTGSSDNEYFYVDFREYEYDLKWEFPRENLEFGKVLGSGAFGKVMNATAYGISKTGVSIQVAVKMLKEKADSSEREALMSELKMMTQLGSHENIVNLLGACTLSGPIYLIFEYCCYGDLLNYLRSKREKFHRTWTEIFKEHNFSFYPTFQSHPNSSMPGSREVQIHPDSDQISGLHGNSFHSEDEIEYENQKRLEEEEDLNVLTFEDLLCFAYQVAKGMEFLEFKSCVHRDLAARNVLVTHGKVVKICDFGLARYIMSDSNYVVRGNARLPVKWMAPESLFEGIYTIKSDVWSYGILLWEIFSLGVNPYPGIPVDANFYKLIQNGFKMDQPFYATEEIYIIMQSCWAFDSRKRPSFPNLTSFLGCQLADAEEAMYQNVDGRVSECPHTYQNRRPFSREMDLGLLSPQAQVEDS
Method in brief: as §1

c-Kit, sequence (P10721 26-976): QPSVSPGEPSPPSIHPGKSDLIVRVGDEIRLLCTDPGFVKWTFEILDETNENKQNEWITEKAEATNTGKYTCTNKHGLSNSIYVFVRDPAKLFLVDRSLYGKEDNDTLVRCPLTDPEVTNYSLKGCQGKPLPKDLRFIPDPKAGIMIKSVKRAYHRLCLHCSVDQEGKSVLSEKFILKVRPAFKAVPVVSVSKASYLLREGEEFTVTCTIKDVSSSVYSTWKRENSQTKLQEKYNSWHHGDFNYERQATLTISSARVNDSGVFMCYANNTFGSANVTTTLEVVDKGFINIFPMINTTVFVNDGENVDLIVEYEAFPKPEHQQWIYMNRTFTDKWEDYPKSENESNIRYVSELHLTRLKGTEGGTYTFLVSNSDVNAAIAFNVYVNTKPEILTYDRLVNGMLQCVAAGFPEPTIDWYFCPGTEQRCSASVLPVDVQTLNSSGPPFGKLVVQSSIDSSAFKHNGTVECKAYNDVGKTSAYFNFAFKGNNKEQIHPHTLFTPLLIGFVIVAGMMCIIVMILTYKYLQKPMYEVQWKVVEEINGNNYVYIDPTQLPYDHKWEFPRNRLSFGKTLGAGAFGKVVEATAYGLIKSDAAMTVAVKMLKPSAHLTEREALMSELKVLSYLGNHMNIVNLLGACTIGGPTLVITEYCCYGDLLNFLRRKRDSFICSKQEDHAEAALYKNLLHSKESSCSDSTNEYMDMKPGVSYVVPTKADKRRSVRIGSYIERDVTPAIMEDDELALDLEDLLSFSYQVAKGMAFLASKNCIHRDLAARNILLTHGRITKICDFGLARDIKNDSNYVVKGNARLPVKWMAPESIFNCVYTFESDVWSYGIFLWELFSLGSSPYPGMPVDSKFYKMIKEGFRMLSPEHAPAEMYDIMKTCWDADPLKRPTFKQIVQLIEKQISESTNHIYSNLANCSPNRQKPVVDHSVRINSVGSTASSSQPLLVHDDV

Row | SMILES | IC50 [1] [µM] | IC50 [2] [µM] | IC50 [3] [µM]
1 | O=C(C1CC1)N1CC=C(c2cnc3[nH]cc(-c4ccc5ncn(CC(F)(F)F)c5c4)c3c2)C1 [P-133, cyclopropyl-[3-[3-[3-(2,2,2-trifluoroethyl)benzimidazol-5-yl]-1H-pyrrolo[2,3-b]pyridin-5-yl]-2,5-dihydropyrrol-1-yl]methanone] | 1 to 10 | 0.0001 to 1 | 0.0001 to 1
2 | CS(=O)(=O)Nc1cccc(-c2cnc3[nH]cc(-c4ccc5ncsc5c4)c3c2)c1 [P-053, N-[3-[3-(1,3-benzothiazol-6-yl)-1H-pyrrolo[2,3-b]pyridin-5-yl]phenyl]methanesulfonamide] | 1 to 10 | 0.0001 to 1 | 0.0001 to 1
3 | Cn1cnc2ccc(-c3c[nH]c4ncc(-c5ccc(NS(C)(=O)=O)cc5)nc34)cc21 [P-063, N-[4-[7-(3-methylbenzimidazol-5-yl)-5H-pyrrolo[2,3-b]pyrazin-2-yl]phenyl]methanesulfonamide] | 1 to 10 | 0.0001 to 1 | 0.0001 to 1
4 | CC(C)(C)n1cnc2ccc(-c3c[nH]c4ncc(-c5ccnc(F)c5)nc34)cc21 [P-384, 7-(3-tert-butylbenzimidazol-5-yl)-2-(2-fluoro-4-pyridyl)-5H-pyrrolo[2,3-b]pyrazine] | 0.0001 to 1 | 0.0001 to 1 | 0.0001 to 1
5 | Cn1cnc2ccc(-c3c[nH]c4ncc(-c5cccc(NS(C)(=O)=O)c5)cc34)cc21 [P-037, N-[3-[3-(3-methylbenzimidazol-5-yl)-1H-pyrrolo[2,3-b]pyridin-5-yl]phenyl]methanesulfonamide] | 10 to 200 | 0.0001 to 1 | 0.0001 to 1
6 | Nc1nc2cc(-c3c[nH]c4ncccc34)ccc2[nH]1 [P-010, 5-(1H-pyrrolo[2,3-b]pyridin-3-yl)-1H-benzimidazol-2-amine] | 10 to 200 | 1 to 10 | 1 to 10
7 | CN(C)c1ccc(-c2cnc3[nH]cc(-c4ccc5ncn(C(C)(C)C)c5c4)c3n2)cn1 [P-379, 5-[7-(3-tert-butylbenzimidazol-5-yl)-5H-pyrrolo[2,3-b]pyrazin-2-yl]-N,N-dimethyl-pyridin-2-amine] | 0.0001 to 1 | 0.0001 to 1 | 0.0001 to 1
8 | CS(=O)(=O)Nc1cccc(-c2cnc3[nH]cc(-c4ccc5ncsc5c4)c3n2)c1 [P-054, N-[3-[7-(1,3-benzothiazol-6-yl)-5H-pyrrolo[2,3-b]pyrazin-2-yl]phenyl]methanesulfonamide] | 1 to 10 | 0.0001 to 1 | 0.0001 to 1
9 | Cn1cnc2ccc(-c3c[nH]c4ncc(F)cc34)cc21 [P-028, 5-fluoro-3-(3-methylbenzimidazol-5-yl)-1H-pyrrolo[2,3-b]pyridine] | 10 to 200 | 0.0001 to 1 | 0.0001 to 1
10 | O=S(=O)(C1CC1)N1CC=C(c2cnc3[nH]cc(-c4ccc5[nH]cnc5c4)c3c2)CC1 [P-031, 3-(1H-benzimidazol-5-yl)-5-(1-cyclopropylsulfonyl-3,6-dihydro-2H-pyridin-4-yl)-1H-pyrrolo[2,3-b]pyridine] | 1 to 10 | 0.0001 to 1 | 1 to 10

The next lines start with the values.

Row | IC50 [1] [µM] | IC50 [2] [µM] | IC50 [3] [µM] | SMILES
11 | 0.0001 to 1 | 0.0001 to 1 | 0.0001 to 1 | COc1ncc(-c2cnc3[nH]cc(-c4ccc5ncn(C(C)(C)C)c5c4)c3n2)cc1F [P-385, 7-(3-tert-butylbenzimidazol-5-yl)-2-(5-fluoro-6-methoxy-3-pyridyl)-5H-pyrrolo[2,3-b]pyrazine]
12 | 10 to 200 | 0.0001 to 1 | 0.0001 to 1 | COC(=O)c1cc(-c2cnc3[nH]cc(-c4ccc5ncn(C)c5c4)c3c2)ccc1C [P-119]
13 | 10 to 200 | 0.0001 to 1 | 0.0001 to 1 | CN1CCOc2ccc(-c3c[nH]c4ncc(-c5cccc(NS(C)(=O)=O)c5)nc34)cc21 [P-065, N-[3-[7-(4-methyl-2,3-dihydro-1,4-benzoxazin-6-yl)-5H-pyrrolo[2,3-b]pyrazin-2-yl]phenyl]methanesulfonamide]
14 | 0.0001 to 1 | 1 to 10 | 1 to 10 | c1cnc2[nH]cc(-c3ccc4[nH]ncc4c3)c2c1 [P-001, 3-(1H-indazol-5-yl)-1H-pyrrolo[2,3-b]pyridine]
15 | 10 to 200 | 0.0001 to 1 | 0.0001 to 1 | CNS(=O)(=O)c1cccc(-c2cnc3[nH]cc(-c4ccc5ncn(C)c5c4)c3c2)c1 [P-046, N-methyl-3-[3-(3-methylbenzimidazol-5-yl)-1H-pyrrolo[2,3-b]pyridin-5-yl]benzenesulfonamide]
16 | 1 to 10 | 1 to 10 | 0.0001 to 1 | c1cnc2[nH]cc(-c3ccc4[nH]cnc4c3)c2c1 [P-004, 3-(1H-benzimidazol-5-yl)-1H-pyrrolo[2,3-b]pyridine]
17 | 1 to 10 | 0.0001 to 1 | 0.0001 to 1 | COc1cc(-c2cnc3[nH]cc(-c4ccc5ncn(C)c5c4)c3c2)ccn1 [P-042, 5-(2-methoxy-4-pyridyl)-3-(3-methylbenzimidazol-5-yl)-1H-pyrrolo[2,3-b]pyridine]
18 | 1 to 10 | 0.0001 to 1 | 0.0001 to 1 | c1cnc2[nH]cc(-c3ccc4ncsc4c3)c2c1 [P-030, 6-(1H-pyrrolo[2,3-b]pyridin-3-yl)-1,3-benzothiazole]
19 | 1 to 10 | 0.0001 to 1 | 0.0001 to 1 | Cc1cnc2[nH]cc(-c3ccc4nc[nH]c4c3)c2c1 [P-021, 3-(3H-benzimidazol-5-yl)-5-methyl-1H-pyrrolo[2,3-b]pyridine]
20 | 10 to 200 | 0.0001 to 1 | 0.0001 to 1 | Cn1cnc2ccc(-c3c[nH]c4ncc(-c5cccc(C(=O)NC6CC6)c5)cc34)cc21 [P-090, N-cyclopropyl-3-[3-(3-methylbenzimidazol-5-yl)-1H-pyrrolo[2,3-b]pyridin-5-yl]benzamide]
21 | 1 to 10 | 0.0001 to 1 | 0.0001 to 1 | COc1cnc2[nH]cc(-c3ccc4[nH]cnc4c3)c2c1 [P-002, 3-(1H-benzimidazol-5-yl)-5-methoxy-1H-pyrrolo[2,3-b]pyridine]
22 | 10 to 200 | 0.0001 to 1 | 1 to 10 | O=C(C1CC1)N1CCC=C(c2cnc3[nH]cc(-c4ccc5[nH]cnc5c4)c3c2)C1 [P-033, [5-[3-(1H-benzimidazol-5-yl)-1H-pyrrolo[2,3-b]pyridin-5-yl]-3,6-dihydro-2H-pyridin-1-yl]-cyclopropyl-methanone]
23 | 1 to 10 | 0.0001 to 1 | 0.0001 to 1 | Cn1cnc2ccc(-c3c[nH]c4ncc(-c5cccc(S(=O)(=O)N6CCCC6)c5)cc34)cc21 [P-122, 1-methyl-6-[5-(3-pyrrolidin-1-ylsulfonylphenyl)-1H-pyrrolo[2,3-b]pyridin-3-yl]benzimidazole]
24 | 1 to 10 | 0.0001 to 1 | 0.0001 to 1 | CC(C)(O)C#Cc1cnc2[nH]cc(-c3ccc4ncn(C(C)(C)C)c4c3)c2n1 [P-377, 4-[7-(3-tert-butylbenzimidazol-5-yl)-5H-pyrrolo[2,3-b]pyrazin-2-yl]-2-methyl-but-3-yn-2-ol]
